Literature values, collected in patent publication US20110274652A1, “Methods for Treating Hepatitis C Virus Infection” (VERTEX PHARMACEUTICALS INCORPORATED, priority 2008, published 2011).

System: Hepatitis C virus
Conditions: interferon alfa monotherapy, chronic hepatitis C

Question: Which “cases with long term remission” value does the source give for interferon alfa here?
Answer: Its value is about 25%.
